Test results published in patent EP1746087A1, “Derivates of 3-indolylmethylene having cytostatic properties” (Universitaet Regensburg, priority 2005, dated 2007).
Where two headings read alike, the source gives them in different places.

Experiments:
Type in all cases: cell-based, menschlich
[1] = test system: MDA-MB-231-Brustkrebszellen; test: Growth inhibition of MDA-MB-231 breast cancer cells in vitro (cytostatic effect); conditions: MDA-MB-231 cells, read-out: IC50 Hemmwirkung auf das Wachstum
Description: (§1) Die cytostatische Wirkung der erfindungsgemäßen Verbindungen wurde an zwei verschiedenen menschlichen Mammacarcinomzellinien in vitro bestimmt (M. Goldbrunner et al., J.Med.Chem. 1997,40,3525). Es handelt sich dabei um die hormonunabhängige MDA-MB-231-Zellinie und die estrogensensitive MCF-7-Linie. Die MDA-MB-231-Zellen wurden auch für die durchflusszytometrischen Analysen zur Zellzyklusverteilung herangezogen (M.J.J. Jaroszeski und R. Heller, Flow Cytometry Protocols, Humana Press, 1998, Totowa New Jersey). Besonders überraschend war, dass diese synthetischen Verbindungen häufig bereits im Konzentrationsbereich von 10 bis 100 nanomolar das Wachstum von menschlichen Tumorzellen stark hemmen, obwohl sie nur ein relativ niedriges Molekulargewicht aufweisen (MG ~ 320 - 500) (Tabelle 2 und 3, Abb. 2). Potente Therapeutika, die ebenfalls in den Zellzyklus eingreifen, besitzen Molekulargewichte im Bereich von 825 (Vincristin als Base) und 850 (Paclitaxel).

[2] = test system: MCF-7-Mammacarcinomzellen; test: Growth inhibition of MCF-7 mammary carcinoma cells in vitro (cytostatic effect); conditions: MCF-7 cells, read-out: IC50 Hemmwirkung auf das Wachstum
Description: as §1

[3] = test system: MDA-MB-231-Mammacarcinomzellen; test: Flow-cytometric analysis of cell cycle distribution
Description: as §1

Question: Which IC50 ([1]; Homo sapiens) does the source give for CCCCCCc1ccc2[nH]c(-c3ccc(OC)cc3)c(C=C(C#N)C#N)c2c1 [Verbindung 9, [5-n-Hexyl-2-(4-methoxyphenyl)-indol-3-yl]-methylenpropandinitril] here?
Answer: 46 nM

Question: And the IC50 ([2]; Homo sapiens, MCF7)?
Answer: 25 nM

Question: And the Debris % ([3]; Konz. 0.1 µM)?
Answer: 6.1%

Question: What about the G1/G0 % ([3]; Konz. 0.1 µM) of the same compound?
Answer: 46.2%

Question: And the G2/M % ([3]; Konz. 0.1 µM)?
Answer: 22.4%

Question: And the S % ([3]; Konz. 0.1 µM)?
Answer: 25.3%

Question: And the Debris % ([3]; Konz. 0.5 µM)?
Answer: 22.6%

Question: What about the G1/G0 % ([3]; Konz. 0.5 µM) of the same compound?
Answer: 7.4%

Question: And the G2/M % ([3]; Konz. 0.5 µM)?
Answer: 53.9%

Question: What about the S % ([3]; Konz. 0.5 µM) of the same compound?
Answer: 16.1%

Question: What about the Debris % ([3]; Konz. 1.0 µM) of the same compound?
Answer: 15.9%

Question: And the G1/G0 % ([3]; Konz. 1.0 µM)?
Answer: 7.1%

Question: What about the G2/M % ([3]; Konz. 1.0 µM) of the same compound?
Answer: 57.3%

Question: And the S % ([3]; Konz. 1.0 µM)?
Answer: 19.7%

Question: For CCCCc1ccc2[nH]c(-c3ccc(C(F)(F)F)cc3)c(C=NC)c2c1 [Verbindung 19, 5-n-Butyl-2-[4-(trifluormethyl)-phenyl]-indol-3-carbaldehyd-methylimin], which IC50 [1] is on record?
Answer: 32 nM

Question: What about the IC50 [2] of the same compound?
Answer: 140 nM

Question: And the Debris % ([3]; Konz. 0.01 µM)?
Answer: 4.4%

Question: And the G1/G0 % ([3]; Konz. 0.01 µM)?
Answer: 43.8%

Question: What about the G2/M % ([3]; Konz. 0.01 µM) of the same compound?
Answer: 36.6%

Question: What about the S % ([3]; Konz. 0.01 µM) of the same compound?
Answer: 14.0%

Question: What about the Debris % ([3]; Konz. 0.05 µM) of the same compound?
Answer: 14.6%

Question: And the G1/G0 % ([3]; Konz. 0.05 µM)?
Answer: 38.9%

Question: What about the G2/M % ([3]; Konz. 0.05 µM) of the same compound?
Answer: 30.8%

Question: What about the S % ([3]; Konz. 0.05 µM) of the same compound?
Answer: 15.3%

Question: What about the Debris % ([3]; Konz. 0.1 µM) of the same compound?
Answer: 27.1%

Question: What about the G1/G0 % ([3]; Konz. 0.1 µM) of the same compound?
Answer: 5.5%

Question: What about the G2/M % ([3]; Konz. 0.1 µM) of the same compound?
Answer: 59.3%

Question: And the S % ([3]; Konz. 0.1 µM)?
Answer: 7.2%

Question: And the Debris % ([3]; Konz. 0.5 µM)?
Answer: 20.5%

Question: What about the G1/G0 % ([3]; Konz. 0.5 µM) of the same compound?
Answer: 6.3%

Question: What about the G2/M % ([3]; Konz. 0.5 µM) of the same compound?
Answer: 59.8%

Question: What about the S % ([3]; Konz. 0.5 µM) of the same compound?
Answer: 11.1%

Question: What does the source list for CCCCc1ccc2[nH]c(-c3ccc(OC)cc3)c(C=NO)c2c1 [Verbindung 20, 5-n-Butyl-2-(4-methoxyphenyl)-indol-3-carbaldehyd-oxim]?
Answer: IC50 ([1]; Homo sapiens): 40 nM; IC50 ([2]; Homo sapiens, MCF7): 210 nM; Debris % ([3]; Konz. 0.05 µM): 7.3%; G1/G0 % ([3]; Konz. 0.05 µM): 50.0%; G2/M % ([3]; Konz. 0.05 µM): 30.0%; S % ([3]; Konz. 0.05 µM): 13.2%; Debris % ([3]; Konz. 0.1 µM): 12.2%; G1/G0 % ([3]; Konz. 0.1 µM): 38.6%; G2/M % ([3]; Konz. 0.1 µM): 34.9%; S % ([3]; Konz. 0.1 µM): 14.4%; Debris % ([3]; Konz. 0.5 µM): 9.6%; G1/G0 % ([3]; Konz. 0.5 µM): 9.0%; G2/M % ([3]; Konz. 0.5 µM): 64.6%; S % ([3]; Konz. 0.5 µM): 14.4%; Debris % ([3]; Konz. 1.0 µM): 13.8%; G1/G0 % ([3]; Konz. 1.0 µM): 9.6%; G2/M % ([3]; Konz. 1.0 µM): 54.8%; S % ([3]; Konz. 1.0 µM): 21.2%

Question: What does the source list for CCCCc1ccc2[nH]c(-c3ccc(C(F)(F)F)cc3)c(C=NNC(=O)c3cccnc3)c2c1 [Verbindung 25, 5-Butyl-2-[4-(trifluormethyl)-phenyl]-indol-3-carbaldehyd-nicotinylhydrazone]?
Answer: IC50 [1]: 97 nM; IC50 [2]: 260 nM; Debris % ([3]; Konz. 0.01 µM): 2.3%; G1/G0 % ([3]; Konz. 0.01 µM): 50.8%; G2/M % ([3]; Konz. 0.01 µM): 26.3%; S % ([3]; Konz. 0.01 µM): 21.7%; Debris % ([3]; Konz. 0.05 µM): 2.7%; G1/G0 % ([3]; Konz. 0.05 µM): 51.2%; G2/M % ([3]; Konz. 0.05 µM): 24.1%; S % ([3]; Konz. 0.05 µM): 23.1%; Debris % ([3]; Konz. 0.1 µM): 2.6%; G1/G0 % ([3]; Konz. 0.1 µM): 48.8%; G2/M % ([3]; Konz. 0.1 µM): 24.9%; S % ([3]; Konz. 0.1 µM): 24.4%; Debris % ([3]; Konz. 0.5 µM): 6.9%; G1/G0 % ([3]; Konz. 0.5 µM): 11.4%; G2/M % ([3]; Konz. 0.5 µM): 75.2%; S % ([3]; Konz. 0.5 µM): 11.0%
